According to patent US4185015A, “Methoxymethyl 6-[D-2,2-dimethyl-4-(4-hydroxyphenyl)-5-oxo-1-imidazolyl]penicillanate” (priority 1977, dated 1980):
Converted amounts (≈) assume the structure as drawn. Like-named read-outs stand apart in the source and are kept apart here.

Key:
Str. pyogenes [1] = assay: MIC in Nutrient Broth (Table III); format: cell-based; conditions: Streptococcus pyogenes, 10^-3 dilution of overnight broth culture, 45% AAB, 5% serum, 50% broth
Source text: (§1) Organism in Nutrient Broth
(§2) *45% AAB 5% serum 50% broth listed above,
(§3) **Dilution of overnight broth culture

Str. pneumoniae = assay: MIC in Nutrient Broth (Table III); format: cell-based; conditions: Streptococcus pneumoniae, 10^-3 dilution of overnight broth culture, 45% AAB, 5% serum, 50% broth
Source text: as §1, §2, §3

S. aureus Smith [2] = assay: MIC in Nutrient Broth (Table III); format: cell-based; conditions: Staphylococcus aureus, S. aureus Smith (10^-4)
Source text: as §1, §3

Pr. morganii [3] = assay: MIC in Nutrient Broth (Table III); format: cell-based; conditions: Morganella morganii
Source text: as §1, §3

Ps. aeruginosa [4] = assay: MIC in Nutrient Broth (Table III); format: cell-based; conditions: Pseudomonas aeruginosa
Source text: as §1, §3

K. pneumoniae [5] = assay: MIC in Nutrient Broth (Table III); format: cell-based; conditions: Klebsiella pneumoniae
Source text: as §1, §3

S. aureus Meth.-Res. = assay: MIC in Nutrient Broth (Table III); format: cell-based; conditions: Staphylococcus aureus, S. aureus Meth.-Res. (10^-3), read-out: MIC
Source text: as §1, §3

E. coli [6] = assay: MIC in Nutrient Broth (Table III); format: cell-based; conditions: Escherichia coli; E. coli (10^-4)
Source text: as §1, §3

S. aureus BX1633 [7] = assay: MIC in Nutrient Broth (Table III); format: cell-based; conditions: Staphylococcus aureus
Source text: as §1, §3

Pr. mirabilis [8] = assay: MIC in Nutrient Broth (Table III); format: cell-based; conditions: Proteus mirabilis; Pr. mirabilis (10^-4)
Source text: as §1, §3

Sal. enteritidis [9] = assay: MIC in Nutrient Broth (Table III); format: cell-based; conditions: Salmonella enterica; Sal. enteritidis (10^-4)
Source text: as §1, §3

Ent. cloacae = assay: MIC in Nutrient Broth (Table III); format: cell-based; conditions: Enterobacter cloacae, Ent. cloacae (10^-4)
Source text: as §1, §3

E. coli Juhl [10] = assay: MIC in Nutrient Broth (Table III); format: cell-based; conditions: Escherichia coli; E. coli Juhl (10^-4)
Source text: as §1, §3

Ser. marcescens [11] = assay: MIC in Nutrient Broth (Table III); format: cell-based; conditions: Serratia marcescens; Ser. marcescens (10^-4)
Source text: as §1, §3

Str. pyogenes [12] = assay: MIC against various organisms (Table I); format: cell-based; conditions: Streptococcus pyogenes; Str. pyogenes + 5% serum; read-out: minimum inhibitory concentration
Sal. enteritidis [13] = assay: MIC against various organisms (Table I); format: cell-based; conditions: Salmonella enterica, read-out: minimum inhibitory concentration
Ps. aeruginosa [14] = assay: MIC against various organisms (Table I); format: cell-based; conditions: Pseudomonas aeruginosa, read-out: minimum inhibitory concentration
S. aureus = assay: MIC against various organisms (Table I); format: cell-based; conditions: Staphylococcus aureus, read-out: minimum inhibitory concentration
S. aureus Smith [15] = assay: MIC against various organisms (Table I); format: cell-based; conditions: Staphylococcus aureus, read-out: minimum inhibitory concentration
D. pneumoniae = assay: MIC against various organisms (Table I); format: cell-based; conditions: Streptococcus pneumoniae; D. pneumoniae + 5% serum; read-out: minimum inhibitory concentration
Pr. mirabilis [16] = assay: MIC against various organisms (Table I); format: cell-based; conditions: Proteus mirabilis, read-out: minimum inhibitory concentration
Pr. morganii [17] = assay: MIC against various organisms (Table I); format: cell-based; conditions: Morganella morganii, read-out: minimum inhibitory concentration
Ser. marcescens [18] = assay: MIC against various organisms (Table I); format: cell-based; conditions: Serratia marcescens, read-out: minimum inhibitory concentration
in vivo = assay: in vivo; set-up: species or system mice; conditions: mouse, po, 50 mg/kg
K. pneumoniae [19] = assay: MIC against various organisms (Table I); format: cell-based; conditions: Klebsiella pneumoniae, read-out: minimum inhibitory concentration
E. coli [20] = assay: MIC against various organisms (Table I); format: cell-based; conditions: Escherichia coli, read-out: minimum inhibitory concentration
E. coli Juhl [21] = assay: MIC against various organisms (Table I); format: cell-based; conditions: Escherichia coli, read-out: minimum inhibitory concentration
S. aureus BX1633 [22] = assay: MIC against various organisms (Table I); format: cell-based; conditions: Staphylococcus aureus
[23] = in vivo
Method: (§4) Only the latter are biologically active per se. Also, both original ester and parent penicillin were measured.

[24] = Oral absorption in man, BL-P1780 Study 101; conditions: in vivo, po
Method: as §4
Three formulations were each administered once orally to six (6) healthy adult male subjects in BL-P1780 Study 101 as follows:
A. BL-P1780, 500 mg. (of amoxicillin-equivalent activity) as two 250 mg. buffered tablets.
B. BL-P1780, 500 mg. (an amoxicillin-equivalent activity) as two 250 mg. buffered tablets with 3.5 g. sodium bicarbonate being taken five minutes prior to the adminstration of BL-P1780.
C. Amoxicillin, 500 mg. as two 250 mg. capsules.
1. To investigate the human safety and tolerance of single 500 mg. doses of BL-P1780.
2. To determine the effect of intragastric buffering with sodium bicarbonate on the absorption of BL-P1780.
3. To compare amoxicillin plasma and saliva concentrations and urinary excretion between BL-P1780 and amoxicillin.

[25] = K. pneumoniae (10^-4), first of two lines, read-out: MIC
[26] = BX1633, S. aureus BX1633 (10^-3), read-out: MIC
[27] = second of three lines, read-out: MIC
[28] = K. pneumoniae, first of two lines

`CC1(C)S[C@@H]2[C@H](NC(=O)[C@H](N)c3ccc(O)cc3)C(=O)N2[C@H]1C(=O)O` [Amoxicillin Trihydrate] gave an MIC (Str. pyogenes [1]) of 0.016 µg/mL, an MIC (Str. pneumoniae) of 0.016 µg/mL and an MIC (S. aureus Smith [2]) of 0.13 µg/mL. It also gave an MIC (Pr. morganii [3]) greater than 125 µg/mL, an MIC (Ps. aeruginosa [4]) greater than 125 µg/mL and an MIC (K. pneumoniae [5]) greater than 125 µg/mL. The MIC (K. pneumoniae [5]; [25]) was 0.25 µg/mL, the MIC (S. aureus Meth.-Res.; 28° C.) was 32 µg/mL and the MIC (S. aureus Meth.-Res.; 37° C.) was 63 µg/mL. It also gave an MIC (E. coli [6]) of 16 µg/mL, an MIC (S. aureus BX1633 [7]; BX1633) greater than 125 µg/mL and an MIC (S. aureus BX1633 [7]; [26]) of 16 µg/mL. For the same molecule, the MIC (Pr. mirabilis [8]) was 0.25 µg/mL, the MIC (Sal. enteritidis [9]) was 0.25 µg/mL and the MIC (Ent. cloacae; first of three lines) was greater than 125 µg/mL. For the same molecule, the MIC (Ent. cloacae; [27]) was 63 µg/mL, the MIC (Ent. cloacae; third of three lines) was 125 µg/mL and the MIC (E. coli Juhl [10]) was 1 µg/mL. The MIC (Ser. marcescens [11]) was 32 µg/mL.

`CC1(C)S[C@@H]2[C@H](NC(=O)[C@H](N)c3ccccc3)C(=O)N2[C@H]1C(=O)O` [Cpd. A, ampicillin] showed an MIC (Str. pyogenes [12]) of 0.004 µg/mL, an MIC (Sal. enteritidis [13]) of 0.13 µg/mL (≈ 0.372 µM) and an MIC (Ps. aeruginosa [14]) greater than 125 µg/mL. It also gave an MIC (S. aureus; first of three lines) of 125 µg/mL (≈ 358 µM), an MIC (S. aureus; second of three lines) of 125 µg/mL (≈ 358 µM) and an MIC (S. aureus; third of three lines) greater than 125 µg/mL. It also gave an MIC (S. aureus Smith [15]; S. aureus Smith + 50% serum) of 0.06 µg/mL, an MIC (S. aureus Smith [15]; S. aureus Smith) of 0.03 µg/mL (≈ 0.0859 µM) and an MIC (D. pneumoniae) of 0.004 µg/mL. For the same molecule, the MIC (Pr. mirabilis [16]) was 0.16 µg/mL (≈ 0.458 µM), the MIC (Pr. morganii [17]) was greater than 125 µg/mL and the MIC (Ser. marcescens [18]) was 32 µg/mL (≈ 91.6 µM). It also gave a concentration at 0.5 h (in vivo) of 3300 ng/mL, a concentration at 1 h (in vivo) of 2100 ng/mL and a concentration at 2 h (in vivo) of 900 ng/mL. For the same molecule, the concentration at 3.5 h (in vivo) was 500 ng/mL, the MIC (K. pneumoniae [19]; [28]) was 0.3 µg/mL (≈ 0.859 µM) and the MIC (K. pneumoniae [19]) was 125 µg/mL (≈ 358 µM). The MIC (E. coli [20]) was 32 µg/mL (≈ 91.6 µM), the MIC (E. coli Juhl [21]) was 1 µg/mL (≈ 2.86 µM) and the MIC (S. aureus BX1633 [22]; BX1633, read-out: minimum inhibitory concentration, S. aureus BX1633, first of two lines) was 125 µg/mL (≈ 358 µM). For the same molecule, the MIC (S. aureus BX1633 [22]; BX1633, read-out: minimum inhibitory concentration, S. aureus BX1633, second of two lines) was greater than 125 µg/mL.

With `COCOC(=O)[C@@H]1N2C(=O)[C@@H](N3C(=O)[C@@H](c4ccc(O)cc4)NC3(C)C)[C@H]2SC1(C)C` [Example 8, methoxymethyl 6-[D-(-)-2,2-dimethyl-4-(4-hydroxyphenyl)-5-oxo-1-imidazolyl]-penicillanate] the MIC (Str. pyogenes [12]) was 0.004 µg/mL, the MIC (Sal. enteritidis [13]) was 0.13 µg/mL (≈ 0.289 µM) and the MIC (Ps. aeruginosa [14]; Ps. aeruginosa) was greater than 125 µg/mL. It also gave an MIC (S. aureus; third of three lines) greater than 125 µg/mL, an MIC (S. aureus Smith [15]; S. aureus Smith + 50% serum) of 0.06 µg/mL and an MIC (S. aureus Smith [15]; S. aureus Smith) of 0.06 µg/mL (≈ 0.133 µM). For the same molecule, the MIC (Str. pyogenes [1]) was 0.008 µg/mL (≈ 0.0178 µM), the MIC (Str. pneumoniae) was 0.008 µg/mL (≈ 0.0178 µM) and the MIC (D. pneumoniae) was 0.004 µg/mL. The MIC (Pr. mirabilis [16]) was 0.16 µg/mL (≈ 0.356 µM), the MIC (Pr. morganii [17]; Pr. morganii) was 32 µg/mL (≈ 71.2 µM) and the MIC (Ser. marcescens [18]) was 32 µg/mL (≈ 71.2 µM). It also gave a concentration at 0.5 h (in vivo) of 4800 ng/mL, a concentration at 1 h (in vivo) of 3500 ng/mL and a concentration at 2 h (in vivo) of 1700 ng/mL. For the same molecule, the concentration at 3.5 h (in vivo) was 700 ng/mL, the “tissue distribution of amoxicillin from BL-P1780 over that of ampicillin, amoxicillin or ampicillin from sarpicillin” value [23] was “markedly improved tissue distribution” and the “hydrolysis of the ester” value ([23]; po) was “hydrolyze eventually to their parent penicillins”. For the same molecule, the MIC (K. pneumoniae [19]; [28]) was 0.16 µg/mL (≈ 0.356 µM), the MIC (K. pneumoniae [19]; K. pneumoniae, second of two lines) was greater than 125 µg/mL and the MIC (E. coli [20]) was 32 µg/mL (≈ 71.2 µM). The MIC (S. aureus Smith [2]) was 0.13 µg/mL (≈ 0.289 µM), the MIC (Pr. morganii [3]; Pr. morganii (10^-4), read-out: MIC) was greater than 125 µg/mL and the MIC (Ps. aeruginosa [4]; Ps. aeruginosa (10^-4), read-out: MIC) was greater than 125 µg/mL. For the same molecule, the MIC (K. pneumoniae [5]; [25]) was 0.13 µg/mL (≈ 0.289 µM), the MIC (K. pneumoniae [5]; K. pneumoniae (10^-4), second of two lines, read-out: MIC) was greater than 125 µg/mL and the MIC (S. aureus Meth.-Res.; 28° C.) was 63 µg/mL (≈ 140 µM). For the same molecule, the MIC (S. aureus Meth.-Res.; 37° C.) was 125 µg/mL (≈ 278 µM), the MIC (E. coli [6]) was 32 µg/mL (≈ 71.2 µM) and the MIC (S. aureus BX1633 [7]; BX1633, S. aureus BX1633 (10^-2), read-out: MIC) was greater than 125 µg/mL. For the same molecule, the MIC (S. aureus BX1633 [7]; [26]) was 16 µg/mL (≈ 35.6 µM), the MIC (Pr. mirabilis [8]) was 0.25 µg/mL (≈ 0.556 µM) and the MIC (Sal. enteritidis [9]) was 1 µg/mL (≈ 2.22 µM). The MIC (Ent. cloacae; first of three lines, read-out: MIC) was 125 µg/mL (≈ 278 µM), the MIC (Ent. cloacae; [27]) was 125 µg/mL (≈ 278 µM) and the MIC (Ent. cloacae; third of three lines, read-out: MIC) was 63 µg/mL (≈ 140 µM). The MIC (E. coli Juhl [10]) was 1 µg/mL (≈ 2.22 µM), the MIC (Ser. marcescens [11]) was greater than 125 µg/mL and the MIC (E. coli Juhl [21]) was 1 µg/mL (≈ 2.22 µM). The MIC (S. aureus BX1633 [22]; BX1633, S. aureus BX1633, first of two lines, read-out: minimum inhibitory concentration) was 125 µg/mL (≈ 278 µM), the MIC (S. aureus BX1633 [22]; BX1633, S. aureus BX1633, second of two lines, read-out: minimum inhibitory concentration) was greater than 125 µg/mL and the “need of intragastric buffering for bioavailability or tissue distribution” value [24] was “not necessary”.

Work on `CC1(C)S[C@@H]2[C@H](N3C(=O)[C@@H](c4ccccc4)NC3(C)C)C(=O)N2[C@H]1C(=O)O` [Compound 3, D-6-(2,2-dimethyl-5-oxo-4-phenyl-1-imidazolidinyl)penicillanic acid] yielded a concentration at 0.5 h (in vivo) of 2000 ng/mL, a concentration at 2 h (in vivo) of 1100 ng/mL and a concentration at 3.5 h (in vivo) of 500 ng/mL.
